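Compound exposure: 48 hours, 5 concentrations, 96-well plates. TGI: concentration producing complete growth inhibition.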
Assays:
Assay in all cases: growth of human tumour cells (NCI), 48 h
SNB-19 CNS = system: SNB-19 CNS
HCT-116 colon = system: HCT-116 colon
SF-268 CNS = system: SF-268 CNS
U251 CNS = system: U251 CNS
SK-MEL-2 melanoma = system: SK-MEL-2 melanoma
MOLT-4 leukemia = system: MOLT-4 leukemia
UACC-257 melanoma = system: UACC-257 melanoma
KM12 colon = system: KM12 colon
SW-620 colon = system: SW-620 colon
A498 renal = system: A498 renal
K-562 leukemia = system: K-562 leukemia
PC-3 prostate = system: PC-3 prostate
RXF 393 renal = system: RXF 393 renal
NCI-H522 lung = system: NCI-H522 lung
MDA-N = system: MDA-N
NCI-H226 lung = system: NCI-H226 lung
MCF7 breast = system: MCF7 breast
COLO 205 colon = system: COLO 205 colon
MDA-MB-231 breast = system: MDA-MB-231 breast
HOP-92 NSCLC = system: HOP-92 NSCLC

| SMILES | TGI (SNB-19 CNS) [µM] | TGI (HCT-116 colon) [µM] | TGI (SF-268 CNS) [µM] | TGI (U251 CNS) [µM] | TGI (SK-MEL-2 melanoma) [µM] | TGI (MOLT-4 leukemia) [µM] | TGI (UACC-257 melanoma) [µM] | TGI (KM12 colon) [µM] | TGI (SW-620 colon) [µM] | TGI (A498 renal) [µM] | TGI (K-562 leukemia) [µM] | TGI (PC-3 prostate) [µM] | TGI (RXF 393 renal) [µM] | TGI (NCI-H522 lung) [µM] | TGI (MDA-N) [µM] | TGI (NCI-H226 lung) [µM] | TGI (MCF7 breast) [µM] | TGI (COLO 205 colon) [µM] | TGI (MDA-MB-231 breast) [µM] | TGI (HOP-92 NSCLC) [µM] |
| --- | --- | --- | --- | --- | --- | --- | --- | --- | --- | --- | --- | --- | --- | --- | --- | --- | --- | --- | --- | --- |
| COC(=O)c1c(C)c2c(c(C)c1C(=O)OC)-c1c(C)ccc3ccc(C)c-2c13 | > 100 | > 100 | > 100 | > 100 | > 100 | > 100 | > 100 | > 100 | > 94.5 | > 100 | > 100 | > 100 | > 100 | > 100 | > 100 | > 100 | > 100 | > 100 | > 60.6 |  |
| COc1ccc(CCNC(=O)c2ccccc2C2c3ccc(OCc4ccccc4)cc3Oc3cc(OCc4ccccc4)ccc32)cc1OC | > 100 | > 100 | > 100 | > 100 | > 100 | > 100 | > 100 | > 100 | > 100 | > 100 | > 100 | > 100 | > 100 | > 100 | > 100 | > 100 | > 100 | > 100 | > 100 |  |
| CO[C@@]12C[C@@H](C)[C@]34O[C@H]3C[C@]3(C)O[C@]43CC1=C(C)C(=O)O2 | > 100 | > 100 | > 100 | > 100 | > 100 |  | > 100 | > 100 | > 100 | > 100 | > 100 | > 100 |  | > 100 | > 100 | > 100 | > 100 | > 100 | > 100 | > 100 |
| CCOC(=O)C1C(c2ccc(OC)cc2)c2c([nH][nH]c2=O)CC1(C)O (stereo unspecified) | > 100 | > 100 | > 100 | > 100 | > 100 | > 100 | > 100 | > 100 | > 100 | > 100 |  | > 100 |  | > 100 | > 100 |  | > 100 | > 100 | > 100 | > 100 |
| CN1C(=O)C(C(=O)Nc2ccccn2)C2C[C@@]1(C)Oc1ccccc12 (stereo partly specified) | > 100 | > 100 | > 100 | > 100 | > 100 | > 100 | > 100 | > 100 | > 100 | > 100 | > 100 | > 100 | > 100 | > 100 | > 100 | > 100 |  | > 100 | > 100 | > 100 |
| O=C(COc1ccccc1)N(C(=O)N1CCN(c2ccccc2)CC1)S(=O)(=O)c1ccccc1 | > 100 | > 100 | > 100 | > 100 | > 100 | 61.9 | > 100 | > 100 | > 100 | > 100 | > 100 | > 100 |  | > 100 | > 100 | > 100 | > 100 | > 100 | > 100 | > 100 |

From PubChem BioAssay (NCI)
